Structures can show the parent of a compound that is named as a salt.

The results in this text go back to EP4227307A1 (Genzyme Corporation, priority 2022, dated 2023).

The experiment deals with T1, human recombinant 6His-Nterm SHP2 full-length (Thr2-Arg593) (Homo sapiens, UniProt Q06124).
T1 construct: 6His-Nterm SHP2 full-length (Thr2-Arg593, R&D system); 6His (N); purchased R&D system
T1 sequence (Q06124 2-593): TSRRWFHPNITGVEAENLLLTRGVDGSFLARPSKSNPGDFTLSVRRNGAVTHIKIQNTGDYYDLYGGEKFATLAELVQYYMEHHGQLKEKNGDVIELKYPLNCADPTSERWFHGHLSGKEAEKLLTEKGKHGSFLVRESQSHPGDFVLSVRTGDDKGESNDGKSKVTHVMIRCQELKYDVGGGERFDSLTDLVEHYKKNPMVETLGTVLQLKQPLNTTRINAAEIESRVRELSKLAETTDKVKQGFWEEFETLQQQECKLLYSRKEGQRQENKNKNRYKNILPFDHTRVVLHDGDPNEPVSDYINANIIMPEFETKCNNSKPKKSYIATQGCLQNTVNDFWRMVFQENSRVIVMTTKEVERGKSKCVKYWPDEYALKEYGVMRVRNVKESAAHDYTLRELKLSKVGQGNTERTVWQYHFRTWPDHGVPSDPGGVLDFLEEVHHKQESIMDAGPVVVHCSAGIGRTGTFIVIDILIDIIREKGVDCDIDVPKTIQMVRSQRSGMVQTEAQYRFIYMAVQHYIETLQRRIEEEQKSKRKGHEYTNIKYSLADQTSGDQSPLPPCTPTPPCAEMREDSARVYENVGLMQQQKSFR
Put plainly: SHP2 Phosphatase Assay (DiFMUP fluorescence). It counts as biochemical. Conditions: SHP2 0.2 nM pre-incubated with 100 nM bi-phosphorylated activating peptide; compound 1000-0.05 nM, 30 min pre-incubation; DiFMUP 20 µM, 45 min, room temperature; 10-concentration dose-response. Put shortly:
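SHP2 (0.2 nM) preactivated ≥10 min with 100 nM bis-phosphorylated peptide, then 30 min with compound (10 concentrations, 1000–0.05 nM) at room temperature, pH 7.2 HEPES buffer with DTT. DiFMUP (20 µM, added solution) reacted 45 min, pervanadate-stopped; fluorescence 350/450 nm. IC50 by 4-parameter logistic fit.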
With `Cc1ccc(-c2c(C)nc(N3CCC4(CC3)Cc3ncccc3[C@H]4N)c3ccnn23)c(F)c1` [Compound 186, (5S)-1'-[7-(2-fluoro-4-methyl-phenyl)-6-methyl-pyrazolo[1,5-a]pyrazin-4-yl]spiro[5,7-dihydrocyclopenta[b]pyridine-6,4'-piperidine]-5-amine], the IC50 came to 2 nM.
`Cc1nc(N2CCC3(CC2)Cc2ncccc2[C@H]3N)c2ccnn2c1-c1cncs1` [Compound 157, (5S)-1'-(6-methyl-7-thiazol-5-yl-pyrazolo[1,5-a]pyrazin-4-yl)spiro[5,7-dihydrocyclopenta[b]pyridine-6,4'-piperidine] -5-amine hydrochloride]: the concentration for half-maximal inhibition (IC50) turned out to be 72 nM.
Consider `Cc1nc(N2CCC3(CC2)Oc2ccccc2[C@H]3N)c2ccnn2c1-c1cccc(F)c1Cl` [Compound 20, (3R)-1'-[7-(2-chloro-3-fluorophenyl)-6-methyl-pyrazolo[1,5-a]pyrazin-4-yl]spiro[3H-benzofuran-2,4'-piperidine]-3-amine], for which the IC50 is 115 nM.
As to `Cc1ccc2c(n1)CC1(CCN(c3nc(C)c(-c4ccccc4)n4nccc34)CC1)[C@@H]2N` [Compound 107, (5 S)-2-methyl-1'-(6-methyl-7-phenyl-pyrazolo[1,5-a]pyrazin-4-yl)spiro[5,7-dihydrocyclopenta[b]pyridine-6,4'-piperidine]-5-amine hydrochloride], the IC50 is 12 nM.
Next, `Cc1nc(N2CCC3(CC2)Cc2cc(F)ccc2[C@H]3N)c2ccnn2c1-c1cnn(C)c1C` [Compound 101, (1S)-1'-[7-(1,5-dimethylpyrazol-4-yl)-6-methyl-pyrazolo[1,5-a]pyrazin-4-yl]-5-fluoro-spiro[indane-2,4'-piperidine]-1-amine hydrochloride]: 15 nM; `Cc1nc(N2CCC3(CC2)Cc2ncccc2[C@H]3N)c2ccnn2c1-c1ccc2nccnc2c1F` [Compound 78, (5S)-1'-[7-(5-fluoroquinoxalin-6-yl)-6-methyl-pyrazolo[1,5-a]pyrazin-4-yl]spiro [5,7-dihydrocyclopenta[b]pyridine-6,4'-piperidine] -5-amine hydrochloride]: 12 nM.
Regarding `Cc1nc(N2CCC3(CC2)Oc2ccccc2[C@H]3N)c2ccnn2c1-c1ccc(F)c2cc[nH]c12` [Compound 18, (3R)-1'-[7-(4-fluoro-1H-indol-7-yl)-6-methyl-pyrazolo[1,5-a]pyrazin-4-yl] spiro [3H-benzofuran-2,4'-piperidine] -3 - amine], the IC50 was 132 nM.
For `Cc1nc(N2CCC3(CC2)Cc2ccccc2[C@H]3N)c2ccnn2c1-c1cnoc1C` [Compound 150, (1S)-1'-[6-methyl-7-(5-methylisoxazol-4-yl)pyrazolo[1,5-a]pyrazin-4-yl]spiro[indane-2,4'-piperidine]-1-amine] the value was 140 nM.
For the compound `Cc1ccc2c(n1)CC1(CCN(c3nc(C)c(-c4ccccc4F)n4nccc34)CC1)[C@@H]2N` [Compound 106, (5S)-1'-[7-(2-fluorophenyl)-6-methyl-pyrazolo[1,5-a]pyrazin-4-yl]-2-methyl-spiro[5,7-dihydrocyclopenta[b]pyridine-6,4'-piperidine]-5-amine hydrochloride], the IC50 came out at 14 nM.

By IC50 is commonly meant the concentration at which inhibition is half-maximal.
